In patent publication US10842789B2, “Treatment of schizophrenia” (PIERRE FABRE MEDICAMENT, priority 2017, dated 2020):
Marks after values point to notes of the source that are not given here.

How the values were obtained:
[1] = tested on: patients with acute exacerbation of schizophrenia; assay: Double-blind placebo-controlled phase II study, patients with acute exacerbation of schizophrenia; format: in vivo, human
Description: N-(3-{4-[4-(8-oxo-8H-[1,3]dioxolo[4,5-g]chromen-7-yl)-butyl]-piperazin-1-yl}-phenyl)-methanesulfonamide hydrochloride has been tested in a placebo-controlled study of patients with an acute exacerbation of schizophrenia.
This double-blind, parallel group, multicenter study included patients with acute exacerbation of schizophrenia treated either with F17464 fixed dose 40 mg (20 mg bid) or placebo (randomization 1:1) for 6 weeks as antipsychotic monotherapy. The primary objective was to evaluate the efficacy of F17464 in comparison to placebo. The primary efficacy criterion was the PANSS (Positive and Negative Syndrome Scale) total score change from baseline to Day 43 on the Full Analysis Set (FAS).
Inclusion criteria included a well-documented diagnosis of schizophrenia for a minimum of 1 year, and a recent acute exacerbation characterized by a PANSS total score at screening ≥70 and <120 with no significant change of the PANSS positive subscore between the screening and randomization visits; and Clinical Global Impression of Severity (CGI-S) score ≥4.
All patients had discontinued previous treatments within the week prior to administration of study medication.
Following screening, patients were maintained in hospital till the 3rd week of treatment. Patients who had CGI-I (Clinical Global Impression of Improvement) score of ≤3 after 3 or 4 weeks were then eligible for hospital discharge and could continue study participation as outpatients.
The PANSS scores of the tested patients were established each week.
Schizophrenia History: Before Screening Visit • Patient with a current primary diagnosis of schizophrenia undergoing an acute exacerbation with prominent “active phase” symptoms, as described by the Diagnostic and Statistical Manual of Mental Disorders, 4th edition—Text Revision (DSM IV-TR) using the MINI 6.0 (Mini-International Neuropsychiatric Interview) for schizophrenia and psychotic disorders related to DSM IV-TR; • For a minimum of 1 year, well-documented diagnosis with the first hospitalization for acute exacerbation of schizophrenia; • Since the diagnosis of schizophrenia, the average number of hospitalizations should be no higher than 2 per year (the minimum duration of hospitalization should be more than 4 days); • During the year before screening visit, maximum 3 acute psychotic episodes that required hospitalization or change of antipsychotic medication or other therapeutic intervention; • Adequate clinical response to well-conducted treatment courses during previous acute episodes. A well conducted treatment course is defined as an antipsychotic treatment with the usual doses for at least 4 weeks. Current Acute Episode: • Structured Clinical Interview for the Positive And Negative Syndrome Scale (SCI-PANSS) with a PANSS total score ≥70 to <120 (at screening and randomization visits); • Rating of at least 4 (moderate) on at least 2 of the following 4 PANSS positive symptoms: delusions, hallucinatory behavior, conceptual disorganization, suspiciousness/persecution; • Clinical Global Impression of Severity (CGI-S) score ≥4 (moderate or severe). • Antipsychotic initiated for this acute episode and/or ongoing chronic antipsychotic treatment, with a maximum of 2 antipsychotics in total needed to be changed (due to inefficacy or safety reasons); • Hospitalization and/or treatment for the current psychotic episode for less than 2 weeks prior to screening visit; • No significant improvement of PANSS total score between enrolment (screening visit) and inclusion (randomization visit) corresponding to a score improvement <20% on positive symptoms subscale. Examination: • Normal physical examination results, vital signs and clinical laboratory test results or other results judged not clinically significant by the investigator; • Body mass index (BMI)≥18 and ≤35 kg/m^2 inclusive. […]

[2] = target: T1, D3 (Homo sapiens, UniProt P35462); conditions: healthy subjects, after two single dose levels; cited from earlier work
T1 construct: from tissue; host or cells: brain of healthy subjects in vivo (PET)
T1 sequence (P35462 whole entry): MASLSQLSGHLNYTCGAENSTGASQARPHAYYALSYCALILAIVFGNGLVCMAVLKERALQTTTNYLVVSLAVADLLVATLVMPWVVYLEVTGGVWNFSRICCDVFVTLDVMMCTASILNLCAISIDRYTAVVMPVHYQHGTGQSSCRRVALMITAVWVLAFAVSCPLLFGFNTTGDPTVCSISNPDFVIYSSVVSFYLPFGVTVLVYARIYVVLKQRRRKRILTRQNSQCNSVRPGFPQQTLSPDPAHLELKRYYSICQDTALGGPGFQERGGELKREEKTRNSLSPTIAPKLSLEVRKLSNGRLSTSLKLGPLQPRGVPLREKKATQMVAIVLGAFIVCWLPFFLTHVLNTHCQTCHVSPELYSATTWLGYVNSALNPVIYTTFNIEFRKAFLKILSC

[3] = target: T2, human recombinant dopamine D2L receptor (Homo sapiens, UniProt P14416); assay: [3H] spiperone binding, cells expressing human recombinant dopamine D2L receptors
T2 construct: expressed in transfected cells
T2 sequence (P14416 whole entry): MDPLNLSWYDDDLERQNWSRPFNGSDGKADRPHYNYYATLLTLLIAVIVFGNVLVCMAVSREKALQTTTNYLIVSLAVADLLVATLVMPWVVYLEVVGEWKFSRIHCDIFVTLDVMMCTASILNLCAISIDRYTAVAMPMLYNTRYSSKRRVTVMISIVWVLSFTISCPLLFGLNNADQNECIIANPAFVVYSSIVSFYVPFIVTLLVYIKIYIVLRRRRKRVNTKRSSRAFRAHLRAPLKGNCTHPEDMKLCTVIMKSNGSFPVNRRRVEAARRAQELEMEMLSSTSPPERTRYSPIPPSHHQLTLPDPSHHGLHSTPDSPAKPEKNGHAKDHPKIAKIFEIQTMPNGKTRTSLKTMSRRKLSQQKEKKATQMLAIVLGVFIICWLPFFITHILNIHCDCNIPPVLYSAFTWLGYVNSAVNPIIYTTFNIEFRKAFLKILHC
Description: (§1) The activity of F17464 was evaluated at recombinant dopaminergic receptors in vitro for its profile at D2 and D3 receptor. […] F17464 was also evaluated for its agonist, partial agonist, or antagonist activity at the dopamine D3 receptor by using the MAP-kinase activity test on human recombinant dopamine D3 receptors (Cussac et al., Mol. Pharmacol. 1999, 56, 1025-1030).
(§2) As used herein, the term “selective D3 antagonist” refers to a D3 antagonist, as defined here above, that has more affinity for the D3 receptor than for the D2 receptor (D2S and/or D2L). Affinity of a compound for a receptor is usually expressed as a Ki value. Preferentially, the relative binding affinities are determined in competitive radioligand binding studies using cells expressing human recombinant dopamine D3, D2S or D2L receptors (Newman-Tancredi et al. British Journal of Pharmacology, 2007, 151, 237-252). More preferentially, it is defined in [^3H] spiperone binding studies using cells expressing human recombinant dopamine D3 receptors or human recombinant dopamine D2L or D2S receptors (Cussac et al. Naunyn-Schmiedeberg's Arch Pharmacol, 2000, 361, 569-572).

[4] = target: T3, human recombinant dopamine D2S receptor (Homo sapiens, UniProt P14416); assay: [3H] spiperone binding, cells expressing human recombinant dopamine D2S receptors
T3 construct: expressed in transfected cells
T3 sequence (P14416 1-414 isoform P14416-2): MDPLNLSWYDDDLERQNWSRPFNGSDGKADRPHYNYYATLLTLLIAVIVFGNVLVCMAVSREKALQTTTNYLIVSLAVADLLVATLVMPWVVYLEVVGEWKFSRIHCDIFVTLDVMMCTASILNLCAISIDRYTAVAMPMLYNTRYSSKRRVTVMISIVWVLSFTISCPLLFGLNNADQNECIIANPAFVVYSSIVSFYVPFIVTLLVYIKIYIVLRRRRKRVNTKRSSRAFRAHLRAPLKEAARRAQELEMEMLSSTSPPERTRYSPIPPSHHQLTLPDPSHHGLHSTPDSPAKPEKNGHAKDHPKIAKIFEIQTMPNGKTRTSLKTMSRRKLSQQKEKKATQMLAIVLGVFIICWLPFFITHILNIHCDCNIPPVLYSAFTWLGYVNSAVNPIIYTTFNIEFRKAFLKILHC
Description: as §1, §2

[5] = tested on: D2 receptor; conditions: healthy subjects, after two single dose levels; cited from earlier work
[6] = F17464 versus placebo, FAS population n = 67
[7] = F17464 versus placebo, NS subgroup n = 29
[8] = NS subgroup versus FAS population
[9] = NS subgroup versus FAS population, score points
[10] = baseline to end of treatment, FAS

CS(=O)(=O)Nc1cccc(N2CCN(CCCCc3coc4cc5c(cc4c3=O)OCO5)CC2)c1 [F17464, N-(3-{4-[4-(8-oxo-8H-[1,3]dioxolo[4,5-g]chromen-7-yl)-butyl]-piperazin-1-yl}-phenyl)-methanesulfonamide]
clinically relevant hepatic, metabolic or cardio-vascular disorder ([1]; 20 mg bid, 6 weeks): no clinically relevant hepatic, metabolic (including clinically relevant weight gain) or cardio-vascular disorder
overall incidence of treatment-emergent adverse events (TEAEs) ([1]; 20 mg bid, 6 weeks): 70.1%
Treatment effect on change from baseline, PANSS general psychopathology [LSmean (SE)] [1, 6]: −3.6 (1.3) *
Treatment effect on change from baseline, PANSS negative symptoms [LSmean (SE)] [1, 6]: −0.7 (0.6)^
Treatment effect on change from baseline, PANSS positive symptoms [LSmean (SE)] [1, 6]: −1.9 (1.0) *
Treatment effect on change from baseline, PANSS general psychopathology [LSmean (SE)] [1, 7]: −6.4 (2.0) *
Treatment effect on change from baseline, PANSS negative symptoms [LSmean (SE)] [1, 7]: −2.7 (1.1) *
Treatment effect on change from baseline, PANSS positive symptoms [LSmean (SE)] [1, 7]: −4.3 (1.6) *
Treatment effect on change from baseline, PANSS total score [LSmean (SE)] [1, 7]: −13 (4.1) *
PANSS general psychopathology, change from baseline [LSmean (SE)] ([1]; FAS population n = 67, Day 43): −6.6 (1.0) *
PANSS negative symptoms, change from baseline [LSmean (SE)] ([1]; FAS population n = 67, Day 43): −1.7 (0.4)^
PANSS positive symptoms, change from baseline [LSmean (SE)] ([1]; FAS population n = 67, Day 43): −6.3 (0.8) *
Discontinuation for Adverse Event, number of patients ([1]; FAS, n = 67): 2
Discontinuation for Adverse Event, percent of patients ([1]; FAS, n = 67): (3.0%)
Discontinuation for Lack Of Efficacy/Worsening of schizophrenia, number of patients ([1]; FAS, n = 67): 11
Discontinuation for Lack Of Efficacy/Worsening of schizophrenia, percent of patients ([1]; FAS, n = 67): (16.4%)
reduction of PANSS total score versus placebo over time ([1]; From Day 22, FAS, LOCF): statistically higher than in placebo group
PANSS general psychopathology, change from baseline [LSmean (SE)] ([1]; NS subgroup n = 29, Day 43): −9.3 (1.5) *
PANSS negative symptoms, change from baseline [LSmean (SE)] ([1]; NS subgroup n = 29, Day 43): −4.3 (0.8) *
PANSS positive symptoms, change from baseline [LSmean (SE)] ([1]; NS subgroup n = 29, Day 43): −8.4 (1.2) *
PANSS total score, adjusted change from baseline [LSmean (SE)] ([1]; NS subgroup n = 29, Day 43): −21.8 (2.9) *
Difference of treatment effect, PANSS general psychopathology, percent [1, 8]: 78%
Difference of treatment effect, PANSS negative symptoms, percent [1, 8]: 285%
Difference of treatment effect, PANSS positive symptoms, percent [1, 8]: 126%
Difference of treatment effect, PANSS total score, percent [1, 8]: 110%
Difference of treatment effect, PANSS general psychopathology [1, 9]: 2.8
Difference of treatment effect, PANSS negative symptoms [1, 9]: 2
Difference of treatment effect, PANSS positive symptoms [1, 9]: 2.4
Difference of treatment effect, PANSS total score [1, 9]: 6.8
Response rate, PANSS total score reduction by 20% [1, 10]: 49.3%
Response rate, PANSS total score reduction by 30% [1, 10]: 27.0%
Time to first sustained PANSS 20% or 30% response ([1]; compared to placebo group, from D21 up to Day 42): Shorter
PANSS positive score and positive factor, defined by Marder, versus placebo ([1]; secondary criteria, FAS): statistically significantly greater
D3 binding rate (PET) [2]: strong and long-lasting
affinity for dopamine D2L receptor, times weaker than D3 ([3]; D2L versus D3): 71 times
Ki ([3]; [3H] spiperone binding): 12.1 nM
affinity for dopamine D2S receptor, times weaker than D3 ([4]; D2S versus D3): 38 times
Ki ([4]; [3H] spiperone binding): 6.5 nM
binding rate to D2 receptor (PET) [5]: modest
